As a reminder, the DC50 is the concentration giving 50% degradation.

Results on 12 molecules are retold here after patent publication US11325889B2, “Substituted 3-((3-aminophenyl)amino)piperidine-2,6-dione compounds, compositions thereof, and methods of treatment therewith” (Celgene Corporation, priority 2018, dated 2022).

In this test the target is T1, AR protein in VCaP cells (Homo sapiens, UniProt P10275).
T1 construct: endogenous in cells; host or cells: VCaP cells
T1 sequence (P10275 1-920): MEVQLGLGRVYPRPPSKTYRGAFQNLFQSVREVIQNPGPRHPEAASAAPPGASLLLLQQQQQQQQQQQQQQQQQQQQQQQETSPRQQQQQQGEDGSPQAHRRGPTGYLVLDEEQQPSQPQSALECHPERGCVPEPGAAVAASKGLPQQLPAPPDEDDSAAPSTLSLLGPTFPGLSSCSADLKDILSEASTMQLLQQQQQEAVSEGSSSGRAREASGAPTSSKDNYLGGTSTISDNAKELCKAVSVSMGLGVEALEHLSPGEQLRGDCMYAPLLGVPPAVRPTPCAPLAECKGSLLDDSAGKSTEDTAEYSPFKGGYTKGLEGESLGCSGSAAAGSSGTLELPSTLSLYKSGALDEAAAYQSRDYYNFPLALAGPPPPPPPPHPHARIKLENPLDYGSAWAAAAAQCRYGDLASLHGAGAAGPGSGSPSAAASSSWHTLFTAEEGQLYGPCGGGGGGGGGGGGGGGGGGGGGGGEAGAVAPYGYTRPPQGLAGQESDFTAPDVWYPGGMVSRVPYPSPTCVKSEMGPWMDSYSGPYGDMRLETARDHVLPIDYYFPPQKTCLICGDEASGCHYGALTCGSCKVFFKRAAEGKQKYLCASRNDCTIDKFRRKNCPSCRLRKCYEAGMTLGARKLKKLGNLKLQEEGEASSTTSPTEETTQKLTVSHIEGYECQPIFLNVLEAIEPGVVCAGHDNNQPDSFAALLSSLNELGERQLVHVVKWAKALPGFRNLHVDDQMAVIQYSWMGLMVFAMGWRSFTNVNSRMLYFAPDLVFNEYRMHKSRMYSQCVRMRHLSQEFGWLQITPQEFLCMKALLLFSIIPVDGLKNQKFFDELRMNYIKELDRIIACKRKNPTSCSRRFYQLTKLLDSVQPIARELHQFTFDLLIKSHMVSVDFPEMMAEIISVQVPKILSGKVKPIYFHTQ
The test is described as follows: VCAP AR Degradation Assay (AR ELISA, 24 h). In kind it is cell-based. Conditions: for Y (lowest measured AR level normalized to DMSO control): AR degradation efficiency; for DC50: concentration of compound when AR level = 50% of DMSO control, read-out: DC50. The protocol:
VCAP AR Degradation Assay.
Test compounds were pre-dispensed into a Corning CellBind 96-well clear bottom plate (Cat #3300) using an acoustic dispenser to make a 10-point concentration series at 1:3 dilution for each compound. The final top concentration of each compound was […]. DMSO at a final concentration of 0.1% was used as a control. VCaP cells cultured in DMEM with 8% fetal bovine serum (FBS) were seeded at 50K cells per well in a 200 μL volume into the compound plate and incubated at 37° C. in a CO2 incubator for 24 h. The medium was carefully removed from the cells and the plate was placed on ice. One hundred […] of ice-cold 1× cell lysis buffer from Cell Signaling Technologies (Cat #9803) was added to each well of the cells and the plate was incubated at 4° C. on a shaker for 1 h. Fifteen […] of cell lysate was used for AR ELISA detection using a PathScan Total Sandwich AR ELISA kit (Cell Signaling Technology, Cat #12580). AR levels in compound-treated wells were normalized to that of DMSO control and expressed as percent of control (PoC) (y). A Four Parameter Logistic Model (Sigmoidal Dose-Response Model) was used to determine the compound's DC50, and EC50, using the following equation: y=(A+((B−A)/(1+((C/x)^D)))) • A=YMin (lowest AR level normalized to DMSO control in response to compound • treatment, as determined by curve fit) • B=YMax (maximum AR level as determined by curve fit) • C=EC50 • D=Hill Slope • x=compound concentration • EC50=the concentration of compound when y=(YMax−YMin)/2 • DC50=the concentration of the compound when y=50% of DMSO control (50% AR degradation) • y=AR protein level normalized to DMSO control
The lowest measured AR level normalized to DMSO control in response to compound treatment, termed Y value, was used to characterize the compound-mediated AR degradation efficiency.
Background: In an ELISA, binding on a coated surface is turned into a signal by an enzyme label.

Turning to `CCc1cc(N2C(=S)N(c3cnc(C#N)c(C(F)(F)F)c3)C(=O)C23CCC3)ccc1OCC[C@H]1CCN(CC(=O)Nc2cccc(NC3CCC(=O)NC3=O)c2)C(C)(C)C1` (stereo partly drawn) [Cmpd 55, 2-((S)-4-(2-(4-(7-(6-cyano-5-(trifluoromethyl)pyridin-3-yl)-8-oxo-6-thioxo-5,7-diazaspiro[3.4]octan-5-yl)-2-ethylphenoxy)ethyl)-2,2-dimethylpiperidin-1-yl)-N-(3-(2,6-dioxopiperidin-3-ylamino)phenyl)acetamide], the “Y (lowest measured AR level normalized to DMSO control)” value is recorded as “* (0<Y<=25%)” and the DC50 is 100 to 500 nM.

For `CC1(C)C(=O)N(c2cnc(C#N)c(C(F)(F)F)c2)C(=S)N1c1ccc(OCCC2CCN(CC(=O)Nc3cccc(NC4CCC(=O)NC4=O)c3)CC2)c(Cl)c1` (stereo not drawn) [Cmpd 5, 2-(4-(2-(2-chloro-4-(3-(6-cyano-5-(trifluoromethyl)pyridin-3-yl)-5,5-dimethyl-4-oxo-2-thioxoimidazolidin-1-yl)phenoxy)ethyl)piperidin-1-yl)-N-(3-(2,6-dioxopiperidin-3-ylamino)phenyl)acetamide], the “Y (lowest measured AR level normalized to DMSO control)” value is listed as “* (0<Y<=25%)” and the 50% degradation concentration (DC50) was less than 100 nM.

For the molecule `CC1(C)C(=O)N(c2ccc(C#N)c(C(F)(F)F)c2)C(=S)N1c1ccc(OCCC2CCN(CC(=O)Nc3cc(Cl)cc(NC4CCC(=O)NC4=O)c3)CC2)c(CCF)c1` (stereo not drawn) [Cmpd 33, N-(3-chloro-5-(2,6-dioxopiperidin-3-ylamino)phenyl)-2-(4-(2-(4-(3-(4-cyano-3-(trifluoromethyl)phenyl)-5,5-dimethyl-4-oxo-2-thioxoimidazolidin-1-yl)-2-(2-fluoroethyl)phenoxy)ethyl)piperidin-1-yl)acetamide], the “Y (lowest measured AR level normalized to DMSO control)” value is reported as “* (0<Y<=25%)” and the 50% degradation concentration (DC50) was less than 100 nM.

Turning to `CCc1cc(N2C(=S)N(c3ccc(C#N)c(C(F)(F)F)c3)C(=O)C23CCC3)ccc1OCCC1CCN([C@H](C)C(=O)Nc2cccc(NC3CCC(=O)NC3=O)c2)CC1` (stereo partly drawn) [Cmpd 60, (2R)-2-(4-(2-(4-(7-(4-cyano-3-(trifluoromethyl)phenyl)-8-oxo-6-thioxo-5,7-diazaspiro[3.4]octan-5-yl)-2-ethylphenoxy)ethyl)piperidin-1-yl)-N-(3-(2,6-dioxopiperidin-3-ylamino)phenyl)propanamide], the “Y (lowest measured AR level normalized to DMSO control)” value is reported as “** (25%<Y<=35%)” and the DC50 is 100 to 500 nM.

With `CCc1cc(N2C(=S)N(c3cnc(C#N)c(C(F)(F)F)c3)C(=O)C2(C)C)ccc1OCC1CCN(CC(=O)Nc2cc(Cl)cc(NC3CCC(=O)NC3=O)c2)CC1` (stereo not drawn) [Cmpd 81, N-(3-chloro-5-(2,6-dioxopiperidin-3-ylamino)phenyl)-2-(4-((4-(3-(6-cyano-5-(trifluoromethyl)pyridin-3-yl)-5,5-dimethyl-4-oxo-2-thioxoimidazolidin-1-yl)-2-ethylphenoxy)methyl)piperidin-1-yl)acetamide], the “Y (lowest measured AR level normalized to DMSO control)” value is “** (25%<Y<=35%)” and the half-maximal degradation concentration (DC50) was less than 100 nM.

On to `CCc1cc(N2C(=S)N(c3ccc(C#N)c(C(F)(F)F)c3)C(=O)C2(C)C)ccc1OCC1CCN(CC(=O)Nc2cccc(NC3CCC(=O)NC3=O)c2)CC1` (stereo not drawn) [Cmpd 11, 2-(4-((4-(3-(4-cyano-3-(trifluoromethyl)phenyl)-5,5-dimethyl-4-oxo-2-thioxoimidazolidin-1-yl)-2-ethylphenoxy)methyl)piperidin-1-yl)-N-(3-(2,6-dioxopiperidin-3-ylamino)phenyl)acetamide], for which the “Y (lowest measured AR level normalized to DMSO control)” value was “** (25%<Y<=35%)” and the DC50 was in the range of 100 to 500 nM.

For `CCc1cc(N2C(=S)N(c3ccc(C#N)c(C(F)(F)F)c3)C(=O)C23CCC3)ccc1OCCC1CCN([C@H](C)C(=O)Nc2cc(Cl)cc(NC3CCC(=O)NC3=O)c2)CC1` (stereo partly drawn) [Cmpd 31, (2R)-N-(3-chloro-5-(2,6-dioxopiperidin-3-ylamino)phenyl)-2-(4-(2-(4-(7-(4-cyano-3-(trifluoromethyl)phenyl)-8-oxo-6-thioxo-5,7-diazaspiro[3.4]octan-5-yl)-2-ethylphenoxy)ethyl)piperidin-1-yl)propanamide], the “Y (lowest measured AR level normalized to DMSO control)” value is listed as “* (0<Y<=25%)” and the half-maximal degradation concentration (DC50) lay within 100 to 500 nM.

For the molecule `CCc1cc(N2C(=S)N(c3cnc(C#N)c(C(F)(F)F)c3)C(=O)C2(C)C)ccc1OC1CCN(CC(=O)Nc2cc(Cl)cc(NC3CCC(=O)NC3=O)c2)CC1` (stereo not drawn) [Cmpd 51, N-(3-chloro-5-(2,6-dioxopiperidin-3-ylamino)phenyl)-2-(4-(4-(3-(6-cyano-5-(trifluoromethyl)pyridin-3-yl)-5,5-dimethyl-4-oxo-2-thioxoimidazolidin-1-yl)-2-ethylphenoxy)piperidin-1-yl)acetamide], the “Y (lowest measured AR level normalized to DMSO control)” value is recorded as “* (0<Y<=25%)” and the half-maximal degradation concentration (DC50) was less than 100 nM.

Take `CCc1cc(N2C(=S)N(c3cnc(C#N)c(C(F)(F)F)c3)C(=O)C2(C)C)ccc1OCCC1CCN([C@@H](C)C(=O)Nc2cccc(N[C@H]3CCC(=O)NC3=O)c2)CC1` [Cmpd 46, (S)-2-(4-(2-(4-(3-(6-cyano-5-(trifluoromethyl)pyridin-3-yl)-5,5-dimethyl-4-oxo-2-thioxoimidazolidin-1-yl)-2-ethylphenoxy)ethyl)piperidin-1-yl)-N-(3-((S)-2,6-dioxopiperidin-3-ylamino)phenyl)propanamide]: the “Y (lowest measured AR level normalized to DMSO control)” value is on record as “* (0<Y<=25%)” and the DC50 was less than 100 nM.

With `CCc1cc(N2C(=S)N(c3cnc(C#N)c(C(F)(F)F)c3)C(=O)C2(C)C)ccc1OCCC1CCN([C@H](C)C(=O)Nc2cc(Cl)cc(NC3CCC(=O)NC3=O)c2)CC1` (stereo partly drawn) [Cmpd 25, (2R)-N-(3-chloro-5-(2,6-dioxopiperidin-3-ylamino)phenyl)-2-(4-(2-(4-(3-(6-cyano-5-(trifluoromethyl)pyridin-3-yl)-5,5-dimethyl-4-oxo-2-thioxoimidazolidin-1-yl)-2-ethylphenoxy)ethyl)piperidin-1-yl)propanamide], the “Y (lowest measured AR level normalized to DMSO control)” value is “* (0<Y<=25%)” and the DC50 is less than 100 nM.

On to `CCc1cc(N2C(=S)N(c3cnc(C#N)c(C(F)(F)F)c3)C(=O)C2(C)C)ccc1OCC[C@@H]1CCN(CC(=O)Nc2cccc(NC3CCC(=O)NC3=O)c2)[C@H](C)C1` (stereo partly drawn) [Cmpd 78, 2-((2R,4R)-4-(2-(4-(3-(6-cyano-5-(trifluoromethyl)pyridin-3-yl)-5,5-dimethyl-4-oxo-2-thioxoimidazolidin-1-yl)-2-ethylphenoxy)ethyl)-2-methylpiperidin-1-yl)-N-(3-(2,6-dioxopiperidin-3-ylamino)phenyl)acetamide], for which the “Y (lowest measured AR level normalized to DMSO control)” value was “* (0<Y<=25%)” and the half-maximal degradation concentration (DC50) is less than 100 nM.

In the case of `CCc1cc(N2C(=S)N(c3cnc(C#N)c(C(F)(F)F)c3)C(=O)C23CCC3)ccc1OCCC1CCN([C@@H](C)C(=O)Nc2cc(NC3CCC(=O)NC3=O)ccc2F)CC1` (stereo partly drawn) [Cmpd 85, (2S)-2-(4-(2-(4-(7-(6-cyano-5-(trifluoromethyl)pyridin-3-yl)-8-oxo-6-thioxo-5,7-diazaspiro[3.4]octan-5-yl)-2-ethylphenoxy)ethyl)piperidin-1-yl)-N-(5-(2,6-dioxopiperidin-3-ylamino)-2-fluorophenyl)propanamide], the “Y (lowest measured AR level normalized to DMSO control)” value is on record as “* (0<Y<=25%)” and the 50% degradation concentration (DC50) was in the range of 100 to 500 nM.
